Assays:
NCI/ADR-RES = test: in vitro inhibition of MCF-7/ADR (human breast cancer) cell growth.; assay type: functional
Mus musculus [1] = test: Anticancer activity after implantation of HT-29 human adeno carcinoma xenograft in mice at a dose of 300 mg/kg; 0/6; assay type: functional
DU-145 = test: In vitro inhibition of DU145 (human prostate cancer) cell growth.; assay type: functional
OVCAR-8 = test: Concentration required to inhibit growth of human ovarian (OVCAR8) cell line; assay type: functional
Mus musculus [2] = test: (§1) Anticancer activity after implantation of HT-29 human adeno carcinoma xenograft in mice at a dose of 300 mg/kg; assay type: functional; parameters: reference not given here
UACC-62 = test: Concentration required to inhibit growth of human melanoma (UACC62) cell line; assay type: functional
HT-29 = test: Concentration required to inhibit growth of human colon (HT-29) cell line; assay type: functional
U-251 = test: Concentration required to inhibit growth of human CNS (U251) cell line; assay type: functional
SW-620 = test: Concentration required to inhibit growth of human colon (SW620) cell line; assay type: functional
PC-3 = test: Concentration required to inhibit growth of human prostate (PC3) cell line; assay type: functional
ACHN = test: Concentration required to inhibit growth of human renal (ACHN) cell line; assay type: functional
Mus musculus [3] = test: as §1; assay type: functional
SK-OV-3 = test: Concentration required to inhibit growth of human ovarian (SK-OV3) cell line; assay type: functional
NCI-H522 (Homo sapiens) = test: Concentration required to inhibit growth of human lung (H522) cell line
MCF7 = test: Concentration required to inhibit growth of human breast (MCF-7) cell line; assay type: functional
Mus musculus [4] = test: Anticancer activity after implantation of HT-29 human adeno carcinoma xenograft in mice at a dose of 300 mg/kg; 1/6; assay type: functional

SMILES | GI50 (NCI/ADR-RES) [µM] | Mortality (Mus musculus [1]) | GI50 (DU-145) [µM] | GI50 (OVCAR-8) [µM] | Mean body weight (Mus musculus [2]) [%] | GI50 (UACC-62) [µM] | GI50 (HT-29) [µM] | GI50 (U-251) [µM] | GI50 (SW-620) [µM] | GI50 (PC-3) [µM] | GI50 (ACHN) [µM] | inhibition in vivo at 300 mg/kg (Mus musculus [3]) [%] | GI50 (SK-OV-3) [µM] | GI50 (NCI-H522 (Homo sapiens)) [µM] | GI50 (MCF7) [µM] | Mortality (Mus musculus [4])
COc1cc2ncnc(Nc3ccc(CS(=O)(=O)/C=C/c4ccc(Cl)cc4Cl)cc3)c2cc1OC | 24 | 0 | 1.4 | 2 | 12 | 21 | 6 | 13 | 2 | 5 | 15 | 68 | 2 | 6 | 11 | 
O=S(=O)(/C=C/c1ccc(Cl)cc1Cl)Cc1ccc(Nc2ncnc3ccc(Br)cc23)cc1 | > 100 |  | 2 | 3 | 4 | 2 | 28 | 4 | > 100 | 4 | 0.1 | 22 | 1 | 8 | 4 | 1
O=S(=O)(/C=C/c1ccc(Cl)cc1Cl)Cc1ccc(Nc2ncnc3ccccc23)cc1 | 5 | 0 | 3 | 4 | 7 | 2 | 24 | 4 | 14 | 19 | 0.1 | 22 | 2 | 12 | 4 | 
